What was measured:
Assay in all cases: relative viability (nuclei count vs DMSO), 5 days (fraction); higher = more cells survive
[1] = compound: COc1cc2nc(N3CCCN(C)CC3)nc(NC3CCN(Cc4ccccc4)CC3)c2cc1OC + CS(=O)(=O)N1CCN(Cc2cc3nc(-c4cccc5[nH]ncc45)nc(N4CCOCC4)c3s2)CC1 [Pictilisib] (partner 1 µM)
Procedure, shortened: (§1)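 Relative viability was taken as the ratio of nuclei in treated wells to nuclei in vehicle wells. Lung cancer cell lines in 1536-well plates received compounds by pin tool one day after seeding, either one drug alone or a fixed anchor-drug dose plus five library-drug doses (not always all listed) in √10 steps. Nuclei were counted on 4× images after 5 days of treatment, and values are medians of duplicate plates.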

[2] = compound: COc1cc2nc(N3CCCN(C)CC3)nc(NC3CCN(Cc4ccccc4)CC3)c2cc1OC + CC(C)C[C@H](NC(=O)[C@H](Cc1ccccc1)NC(=O)c1cnccn1)B(O)O [Bortezomib] (partner 0.002 µM)
Procedure, shortened: as §1

AZD6482 + Dasatinib = compound: Cc1cc([C@@H](C)Nc2ccccc2C(=O)O)c2nc(N3CCOCC3)cc(=O)n2c1 [AZD6482] + Cc1nc(Nc2ncc(C(=O)Nc3c(C)cccc3Cl)s2)cc(N2CCN(CCO)CC2)n1 [Dasatinib] (partner 0.075 µM)
Procedure, shortened: as §1

[3] = compound: COc1cc2nc(N3CCCN(C)CC3)nc(NC3CCN(Cc4ccccc4)CC3)c2cc1OC + O=C(c1cc(Cc2n[nH]c(=O)c3ccccc23)ccc1F)N1CCN(C(=O)C2CC2)CC1 [Olaparib] (partner 8 µM)
Procedure, shortened: as §1

Cell Line	relative viability ([1]; first compound 0.2 µM)	relative viability ([1]; first compound 0.6325 µM)	relative viability ([1]; first compound 2 µM)	relative viability ([1]; first compound 6.325 µM)	relative viability ([2]; first compound 0.2 µM)	relative viability ([2]; first compound 0.6325 µM)	relative viability ([2]; first compound 2 µM)	relative viability ([2]; first compound 6.325 µM)	relative viability (AZD6482 + Dasatinib; first compound 0.08 µM)	relative viability (AZD6482 + Dasatinib; first compound 0.253 µM)	relative viability (AZD6482 + Dasatinib; first compound 0.8 µM)	relative viability (AZD6482 + Dasatinib; first compound 2.53 µM)	relative viability (AZD6482 + Dasatinib; first compound 8 µM)	relative viability ([3]; first compound 0.2 µM)	relative viability ([3]; first compound 0.6325 µM)	relative viability ([3]; first compound 2 µM)	relative viability ([3]; first compound 6.325 µM)
NCI-H1915	0.94	0.97	1.04	0.865	0.97	0.973	1.02	0.957	0.298	0.289	0.329	0.286	0.296	0.243	0.267	0.272	0.251
NCI-H1975	0.276	0.313	0.332	0.248	0.371	0.376	0.346	0.413	0.312	0.327	0.389	0.289	0.235	0.761	0.755	0.915	0.823
NCI-H1993	0.709	0.858	0.894	0.811	1.02	1.37	1.23	1.05	0.514	0.543	0.442	0.348	0.542	1.03	1.05	1.14	1.2
NCI-H2009	0.686	0.859	0.962	0.673	0.94	0.833	1.08	0.965	0.2	0.232	0.218	0.165	0.183	0.703	0.706	0.691	0.631
NCI-H2023	0.204	0.279	0.211	0.0903	1.02	0.967	1.05	0.329	0.454	0.494	0.566	0.3	0.423	0.424	0.476	0.48	0.177
NCI-H2085	0.446	0.522	0.471	0.404	1	0.978	0.996	0.912	0.203	0.159	0.21	0.198	0.216	0.775	0.82	0.869	0.785
NCI-H2087	0.752	0.996	0.872	0.834	0.868	0.795	0.884	0.675	0.722	0.822	0.951	–	0.74	0.633	0.615	0.706	0.594
NCI-H2126	0.505	0.557	0.456	0.47	1.15	1.09	1.13	1.08	0.542	0.578	0.568	0.284	0.317	1.01	0.892	0.883	0.919
NCI-H2228	0.385	0.256	0.405	0.175	0.91	0.841	1.47	0.519	–	0.367	0.461	0.427	0.455	0.637	0.62	0.46	0.35
NCI-H2347	0.702	0.686	0.574	0.549	1.04	0.846	1.08	1.07	0.271	0.244	0.262	0.298	0.281	0.563	0.532	0.535	0.521
NCI-H2405	0.453	0.383	0.584	0.328	0.978	0.987	1.04	0.971	0.161	–	0.232	0.206	0.191	0.886	0.847	0.91	0.883
NCI-H3122	0.589	0.634	0.601	0.478	0.97	0.966	1.07	0.989	0.775	0.828	0.94	0.361	0.695	0.644	0.616	0.634	0.629
PC-3 [JPC-3]	0.721	0.763	0.6	0.805	0.793	0.787	0.962	0.675	0.887	0.959	0.898	0.769	0.791	1.2	1.24	1.31	0.966
PC-14	0.676	0.541	0.838	0.239	0.984	0.72	0.981	0.461	0.245	0.281	0.239	0.197	0.16	0.322	0.374	0.279	0.0641
RERF-LC-KJ	0.458	0.559	0.585	0.579	1.12	1.08	1.14	1.02	0.586	0.77	0.762	0.706	0.682	0.857	0.898	1.04	0.637
SK-LU-1	0.702	0.604	0.559	0.401	1.14	1.19	1.5	1.07	–	0.165	0.18	0.152	0.165	0.45	0.384	0.564	0.366
SW 1573	0.478	0.539	0.537	0.325	1.16	0.893	0.882	0.853	0.459	0.357	0.328	0.239	0.206	0.496	0.473	0.487	0.125
UMC-11	0.84	0.805	0.84	0.681	0.737	0.778	0.71	0.594	0.457	0.48	0.472	0.416	0.559	0.38	0.391	0.385	0.221

From the supplement of paper PMC10307832
